Holding throughout (format): functional
Settings in all cases: Homo sapiens

Experiment [1] deals with NCI-H460. In words: In vitro inhibition of Non-Small Cell Lung Cancer NCI-H460 cell lines( least sensitive cell).
The next experiment has as its system A549. In words: In vitro inhibition of Non-Small Cell Lung Cancer A549/ATCC cell lines.
In the next experiment the test system is SK-OV-3. In words: In vitro inhibition of Ovarian Cancer SK-OV-3 cell lines.
Experiment [2] has as its system Hs-578T. In words: In vitro inhibition of Breast Cancer Hs 578.T cell lines(The least sensitive cell).
Another experiment deals with LOX IMVI. Nature of the experiment: In vitro inhibition of Melanoma LOX IM VI cell lines.
The next experiment has as its system TK-10. In words: In vitro inhibition of Renal Cancer TK-10 cell lines.
A further experiment concerns PC-3. In words: In vitro inhibition of Prostate Cancer PC-3 cell lines.
For experiment [3], the system named is SNB-19. In words: In vitro inhibition of CNS Cancer SNB-19 cell lines.
A further experiment has as its system IGROV-1. In words: In vitro inhibition of Ovarian Cancer IGROV1 cell lines.
Another experiment has as its system DU-145. In words: In vitro inhibition of Prostate Cancer DU-145 cell lines.
The next experiment relates to SW-620. In words: In vitro inhibition of Colon Cancer SW-620 cell lines.
In a further experiment the test system is U-251. In words: In vitro inhibition of CNS Cancer U-251 cell lines.
Experiment [4] concerns COLO 205. In words: In vitro inhibition of Colon Cancer COLO 205 cell lines( most sensitive cell).
A further experiment relates to ACHN. Nature of the experiment: In vitro inhibition of Renal Cancer ACHN cell lines.
Another experiment relates to Malme-3M. In words: In vitro inhibition of Melanoma MALME-3M cell lines.
Experiment [5] deals with RPMI-8226. In words: In vitro inhibition of Leukemia RPMI-8226 cell lines.
Another experiment has as its system MDA-MB-435. In words: In vitro inhibition of Breast Cancer MDA-MB-435 cell lines.
Experiment [6] concerns HL-60. In words: In vitro inhibition of Leukemia HL-60(TB) cell lines.
The test system of experiment [7] is Hs-578T. In words: In vitro inhibition of Breast Cancer Hs 578.T cell lines( least sensitive cell).
Experiment [8] relates to NCI-H460. In words: In vitro inhibition of Non-Small Cell Lung Cancer NCI-H460 cell lines.
Experiment [9] relates to COLO 205. Nature of the experiment: In vitro inhibition of Colon Cancer COLO 205 cell lines.
The test system of experiment [10] is HL-60. Nature of the experiment: In vitro inhibition of Leukemia HL-60(TB) cell lines ( most sensitive cell).
Experiment [11] relates to HL-60. Nature of the experiment: In vitro inhibition of Leukemia HL-60(TB) cell lines( most sensitive cell).
The test system of experiment [12] is Hs-578T. Nature of the experiment: In vitro inhibition of Breast Cancer Hs 578.T cell lines.
For experiment [13], the system named is SNB-19. Nature of the experiment: In vitro inhibition of CNS Cancer SNB-19 cell lines( least sensitive cell).
Experiment [14] deals with SNB-19. Nature of the experiment: In vitro inhibition of CNS Cancer SNB-19 cell lines(least sensitive cell).
The subject of experiment [15] is HL-60. Nature of the experiment: In vitro inhibition of Leukemia HL-60(TB) cell lines(most sensitive cell).
The test system of experiment [16] is NCI-H460. Nature of the experiment: In vitro inhibition of Non-Small Cell Lung Cancer NCI-H460 cell lines(least sensitive cell).
In experiment [17] the test system is RPMI-8226. Nature of the experiment: In vitro inhibition of Leukemia RPMI-8226 cell lines( most sensitive cell).

Molecules are shown by their SMILES.

On to `C=C1CC(Cn2cc(C)c(=O)[nH]c2=O)(c2ccc(F)cc2)OC1=O` (configuration not stated), for which the GI50 is 19.1 µM in the experiment with NCI-H460 [1]; 17.8 µM in the experiment with A549; 16.2 µM in the experiment on SK-OV-3; 19.1 µM with Hs-578T [2]; 4.27 µM with LOX IMVI; 4.57 µM in the experiment with TK-10. Moreover, the GI50 in the experiment on PC-3 was 9.12 µM; in the experiment with SNB-19 [3], 14.8 µM; in the experiment on IGROV-1, 5.5 µM; in the experiment with DU-145 it was 7.59 µM; in the experiment on SW-620, 3.63 µM; in the experiment on U-251, 11.5 µM. Moreover, the GI50 in the experiment with COLO 205 [4] is 1.58 µM; in the experiment on ACHN, 3.55 µM; with Malme-3M it was 3.55 µM; in the experiment with RPMI-8226 [5], 3.55 µM; with MDA-MB-435 it was 5.62 µM; in the experiment on HL-60 [6], 2.57 µM.

For `C=C1CC(Cn2ccc(=O)[nH]c2=O)(c2ccc(F)cc2)OC1=O` (configuration not stated), the GI50 is 17 µM in the experiment with A549; 15.1 µM in the experiment on SK-OV-3; 6.03 µM in the experiment with LOX IMVI; 14.5 µM in the experiment on TK-10; 16.2 µM with PC-3; 14.8 µM in the experiment with SNB-19 [3]. The GI50 was 13.2 µM in the experiment with IGROV-1; 15.1 µM with DU-145; 4.9 µM in the experiment on SW-620; 15.5 µM in the experiment on U-251; 20.4 µM in the experiment with Hs-578T [7]; 13.8 µM in the experiment with NCI-H460 [8]. Further, the GI50 is 3.02 µM in the experiment on COLO 205 [4]; 13.2 µM with ACHN; 7.59 µM in the experiment on Malme-3M; 5.37 µM in the experiment on RPMI-8226 [5]; 10.7 µM in the experiment with MDA-MB-435; 3.72 µM in the experiment with HL-60 [6].

With `C=C1CC(Cn2cc(C)c(=O)[nH]c2=O)(c2ccc(-c3ccccc3)cc2)OC1=O` (configuration not stated), the GI50 in the experiment with A549 is 12.3 µM; with SK-OV-3, 13.5 µM; in the experiment on LOX IMVI, 1.74 µM; in the experiment with TK-10, 1.58 µM; with PC-3, 2.51 µM; in the experiment on SNB-19 [3], 16.6 µM. Further, the concentration for 50% growth inhibition (GI50) was 1.91 µM in the experiment with IGROV-1; 1.66 µM in the experiment on DU-145; 1.02 µM with SW-620; 13.2 µM in the experiment on U-251; 1.41 µM with COLO 205 [9]; 25.7 µM in the experiment on Hs-578T [7]. Further, the GI50 in the experiment on NCI-H460 [8] is 13.8 µM; with HL-60 [10] it was 0.234 µM; in the experiment with ACHN, 7.59 µM; in the experiment on Malme-3M it was 3.72 µM; with RPMI-8226 [5], 0.646 µM; in the experiment on MDA-MB-435 it was 2 µM.

With `C=C1CC(Cn2ccc(=O)[nH]c2=O)(c2ccc(-c3ccccc3)cc2)OC1=O` (configuration not stated), the GI50 in the experiment with A549 is 10.7 µM; in the experiment on SK-OV-3, 10.5 µM; with HL-60 [11], 0.105 µM; in the experiment with LOX IMVI, 0.209 µM; in the experiment on Hs-578T [12], 7.41 µM; in the experiment on TK-10 it was 0.955 µM. Besides, the GI50 with PC-3 was 1.32 µM; in the experiment on IGROV-1, 0.708 µM; with DU-145, 0.2 µM; in the experiment with SW-620, 0.17 µM; with U-251, 10 µM; in the experiment with COLO 205 [9], 0.174 µM. Moreover, the GI50 with SNB-19 [13] was 17.4 µM; in the experiment with NCI-H460 [8] it was 10.2 µM; in the experiment on ACHN, 2.29 µM; in the experiment on Malme-3M it was 1.58 µM; in the experiment on RPMI-8226 [5], 0.214 µM; in the experiment on MDA-MB-435, 0.49 µM.

Turning to `C=C1CC(Cn2cc(Br)c(=O)[nH]c2=O)(c2ccc(-c3ccccc3)cc2)OC1=O` (configuration not stated), the GI50 with A549 was 6.17 µM; in the experiment with SK-OV-3 it was 6.03 µM; in the experiment with LOX IMVI, 0.851 µM; in the experiment on Hs-578T [12] it was 4.79 µM; in the experiment on TK-10 it was 0.126 µM; in the experiment on PC-3, 1.26 µM. In addition, the GI50 was 1.2 µM in the experiment on IGROV-1; 1.07 µM in the experiment on DU-145; 0.282 µM with SW-620; 5.75 µM with U-251; 0.355 µM with COLO 205 [9]; 14.5 µM with SNB-19 [14]. Further, the GI50 in the experiment with HL-60 [15] is 0.0457 µM; in the experiment on NCI-H460 [8], 10.5 µM; in the experiment on ACHN, 2.51 µM; with Malme-3M it was 1.55 µM; in the experiment on RPMI-8226 [5], 0.129 µM; in the experiment on MDA-MB-435, 1 µM.

Consider `C=C1CC(Cn2cc(Br)c(=O)[nH]c2=O)(c2ccc(F)cc2)OC1=O` (configuration not stated), for which the GI50 in the experiment on SK-OV-3 was 16.6 µM; in the experiment with LOX IMVI it was 3.39 µM; in the experiment on Hs-578T [12] it was 14.5 µM; with NCI-H460 [16], 20.9 µM; with TK-10 it was 17 µM; with PC-3, 11.7 µM. The GI50 in the experiment on SNB-19 [3] was 19.5 µM; in the experiment on IGROV-1 it was 12.9 µM; with RPMI-8226 [17] it was 0.468 µM; in the experiment with DU-145, 16.2 µM; in the experiment on SW-620, 2.75 µM; in the experiment with U-251 it was 8.51 µM. Also, the GI50 in the experiment on COLO 205 [9] was 2.24 µM; with ACHN, 4.47 µM; in the experiment on Malme-3M, 4.57 µM; in the experiment on MDA-MB-435, 4.07 µM; with HL-60 [6], 1.74 µM.

Usually GI50 stands for the concentration giving 50% growth inhibition.

The record behind these values is ChEMBL document CHEMBL1132023, “Synthesis and anticancer evaluation of certain alpha-methylene-gamma-(4-substituted phenyl)-gamma-butyrolactone bearing thymine, uracil, and 5-bromouracil” (1999).
